Patent US7834023B2 (Portola Pharmaceuticals, Inc., priority 2006, dated 2010)
pIC50: −log10 of the molar value.

Target: T1, P2Y12 receptor (Homo sapiens, UniProt Q9H244)
T1 construct: endogenous in cells; host or cells: human platelets (outdated from blood banks or fresh), apyrase-washed, whole
Test: platelet ADP receptor binding assay (ARB): inhibition of [3H]2-MeS-ADP binding to platelets
Conditions: [3H]2-MeS-ADP binding to apyrase-washed human platelets
Procedure: 1. The Ability of Candidate Molecules to Inhibit the Binding of [^3H]2-MeS-ADP to the […] Receptor on Platelets was Determined Using a Radioligand Binding Assay.
Utilizing this assay the potency of inhibition of such compounds with respect to [^3H]2-MeS-ADP binding to whole platelets is determined. Under the conditions described in II (3) below, the binding of [^3H]2-MeS-ADP is solely due to the interaction of this ligand with the P2Y12 receptor, in that all the specific binding measured in this assay is competable with a P2Y12 antagonist (i.e., the specific binding is reduced to background levels by competition with an excess of P2Y12 antagonist, with no competition of binding when a P2Y1 antagonist is pre-incubated with the platelet preparation). [^3H]2-MeS-ADP binding experiments are routinely performed with outdated human platelets collected by standard procedures at hospital blood banks. Apyrase-washed outdated platelets are prepared as follows (all steps at room temperature, if not indicated otherwise):
Outdated platelet suspensions are diluted with 1 volume of CGS and platelets pelleted by centrifugation at 1900×g for 45 minutes. Platelet pellets are resuspended at 3-6×10^9 platelets/ml in CGS containing 1 U/ml apyrase (grade V, Sigma, St. Louis, Mo.) and incubated for 15 minutes at 37° C. After centrifugation at 730×g for 20 minutes, pellets are resuspended in Hepes-Tyrode's buffer containing 0.1% BSA (Sigma, St. Louis, Mo.) at a concentration of 6.66×10^8 platelets/ml. Binding experiments are performed after >45 minutes resting of the platelets.
Alternatively, binding experiments are performed with fresh human platelets prepared as described in section I (Inhibition of ADP-Mediated Platelet Aggregation in vitro), except that platelets are resuspended in Hepes-Tyrode's buffer containing 0.1% BSA (Sigma, St. Louis, Mo.) at a concentration of 6.66×10^8 platelets/mil. Very similar results are obtained with fresh and outdated platelets.
A platelet ADP receptor binding assay (ARB) using the tritiated potent agonist ligand [^3H]2-MeS-ADP (Jantzen, H. M. et al. (1999) Thromb. Hemost. 81:111-117) has been adapted to the 96-well microtiter format. In an assay volume of 0.2 ml Hepes-Tyrode's buffer with 0.1% BSA and 0.6% DMSO, 1×10^8 apyrase-washed platelets are preincubated in 96-well flat bottom microtiter plates for 5 minutes with serial dilutions of test compounds before addition of 1 nM [^3H]2-MeS-ADP ([^3H]2-methylthioadenosine-5′-diphosphate, ammonium salt; specific activity 20-50 Ci/mmole, obtained by custom synthesis from Amersham Life Science, Inc., Arlington Heights, Ill., or NEN Life Science Products, Boston, Mass.). Total binding is determined in the absence of test compounds. Samples for nonspecific binding may contain 10 μM unlabelled 2-MeS-ADP (RBI, Natick, Mass.). After incubation for 15 minutes at room temperature, unbound radioligand is separated by rapid filtration and two washes with cold (4-8° C.) Binding Wash Buffer (10 mM Hepes pH 7.4, 138 mM NaCl) using a 96-well cell harvester (Minidisc 96, Skatron Instruments, Sterling, Va.) and 8×12 GF/C glassfiber filtermats (Printed Filtermat A, for 1450 Microbeta, Wallac Inc., Gaithersburg, Md.). The platelet-bound radioactivity on the filtermats is determined in a scintillation counter (Microbeta 1450, Wallac Inc., Gaithersburg, Md.). Specific binding is determined by subtraction of non-specific binding from total binding, and specific binding in the presence of test compounds is expressed as % of specific binding in the absence of test compound dilutions. IC50s were derived by non-linear regression analysis.

T1 sequence (Q9H244 whole entry): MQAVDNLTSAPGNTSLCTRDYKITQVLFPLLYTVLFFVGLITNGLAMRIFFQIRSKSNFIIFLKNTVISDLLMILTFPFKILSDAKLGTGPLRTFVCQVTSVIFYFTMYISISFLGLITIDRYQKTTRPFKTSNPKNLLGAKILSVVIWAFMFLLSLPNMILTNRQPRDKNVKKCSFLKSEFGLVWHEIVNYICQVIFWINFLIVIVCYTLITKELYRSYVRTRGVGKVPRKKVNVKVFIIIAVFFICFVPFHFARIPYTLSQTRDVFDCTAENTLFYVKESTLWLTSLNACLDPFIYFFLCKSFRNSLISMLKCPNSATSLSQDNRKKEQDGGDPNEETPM

| Compound | pIC50 |
| --- | --- |
| CNc1cc2[nH]c(=O)n(-c3ccc(C(=O)NC(c4nnn[nH]4)c4ccc(Cl)s4)cc3OC)c(=O)c2cc1F (centres unmarked) [Compound 52, N-((5-chlorothiophen-2-yl)(1H-tetrazol-5-yl)methyl)-4-(6-fluoro-7-(methylamino)-2,4-dioxo-1,2-dihydroquinazolin-3(4H)-yl)-3-methoxybenzamide] | 6.30 to 7.30 |
| CNc1cc2[nH]c(=O)n(-c3ccc(C(=O)NC(c4cc(Cl)cc(Cl)c4)c4nnn[nH]4)cc3)c(=O)c2cc1F (centres unmarked) [Compound 30, N-((3,5-dichlorophenyl)(1H-tetrazol-5-yl)methyl)-4-(6-fluoro-7-(methylamino)-2,4-dioxo-1,2-dihydroquinazolin-3(4H)-yl)benzamide] | < 6.30 |
| CNc1cc2[nH]c(=O)n(-c3ccc(C(=O)NC(c4cccc(OC(F)(F)F)c4)c4nnn[nH]4)cc3)c(=O)c2cc1F (centres unmarked) [Compound 31] | < 6.30 |
| CNc1cc2[nH]c(=O)n(-c3ccc(C(=O)NC(c4nnn[nH]4)c4ccccc4Cl)cc3)c(=O)c2cc1F (centres unmarked) [Compound 28, N-((2-chlorophenyl)(1H-tetrazol-5-yl)methyl)-4-(6-fluoro-7-(methylamino)-2,4-dioxo-1,2-dihydroquinazolin-3(4H)-yl)benzamide] | < 6.30 |
| O=C(NC(C(=O)O)c1cccs1)c1ccc(-n2c(=O)[nH]c3ccccc3c2=O)cc1 (centres unmarked) [Compound 39] | < 6.30 |
| O=C(NC(C(=O)O)c1ccc(Cl)s1)c1ccc(-n2c(=O)[nH]c3ccc(I)cc3c2=O)cc1 (centres unmarked) [Compound 37, 2-(5-chlorothiophen-2-yl)-2-(4-(6-iodo-2,4-dioxo-1,2-dihydroquinazolin-3(4H)-yl)benzamido)acetic acid] | 6.30 to 7.30 |
| CNc1cc2c(=O)n(-c3ccc(C(=O)NC(c4nnn[nH]4)c4ccc(Cl)s4)cc3)c(=O)[nH]c2cc1F (centres unmarked) [Compound 49, N-((5-chlorothiophen-2-yl)(1H-tetrazol-5-yl)methyl)-4-(7-fluoro-6-(methylamino)-2,4-dioxo-1,2-dihydroquinazolin-3(4H)-yl)benzamide] | < 6.30 |

Other lines, results leading:

| pIC50 | Compound |
| --- | --- |
| 6.30 to 7.30 | CNc1cc2c(cc1F)C(=O)N(c1ccc(C(=O)NC(Cc3cccs3)C(=O)O)cc1)CO2 (centres unmarked) [Compound 64, 2-(4-(6-fluoro-7-(methylamino)-4-oxo-2H-benzo[e][1,3]oxazin-3(4H)-yl)benzamido)-3-(thiophen-2-yl)propanoic acid] |
| < 6.30 | NC(=O)c1cn(-c2ccc(C(=O)NC(C(=O)O)c3ccc(Cl)s3)cc2)c(=O)c2ccccc12 (centres unmarked) [Compound 99] |
| 6.30 to 7.30 | O=C(Nc1ccc(-n2c(=O)[nH]c3cc(NCc4ccc(F)cc4)ccc3c2=O)cc1)NC(Cc1cccs1)C(=O)O (centres unmarked) [Compound 109, 2-(3-(4-(7-(4-fluorobenzylamino)-2,4-dioxo-1,2-dihydroquinazolin-3(4H)-yl)phenyl)ureido)-3-(thiophen-2-yl)propanoic acid] |
| 6.30 to 7.30 | CNc1cc2c(cc1F)C(=O)N(c1ccc(C(=O)NC(C(=O)OC)c3ccc(Cl)s3)cc1)CO2 (centres unmarked) [Compound 66, methyl 2-(5-chlorothiophen-2-yl)-2-(4-(6-fluoro-7-(methylamino)-4-oxo-2H-benzo[e][1,3]oxazin-3(4H)-yl)benzamido)acetate] |
| < 6.30 | COC(=O)C(NC(=O)c1ccc(N2COc3ccc(C)cc3C2=O)cc1)c1ccc(Cl)s1 (centres unmarked) [Compound 76, methyl 2-(5-chlorothiophen-2-yl)-2-(4-(6-methyl-4-oxo-2H-benzo[e][1,3]oxazin-3(4H)-yl)benzamido)acetate] |
| 6.30 to 7.30 | CNc1cc2ncn(-c3ccc(C(=O)NC(C(=O)O)c4ccc(Cl)s4)cc3)c(=O)c2cc1F (centres unmarked) [Compound 116, 2-(5-chlorothiophen-2-yl)-2-(4-(6-fluoro-7-(methylamino)-4-oxoquinazolin-3(4H)-yl)benzamido)acetic acid] |
| < 6.30 | CCc1ccc2c(c1)C(=O)N(c1ccc(C(=O)NC(C(=O)O)c3ccc(Cl)s3)cc1)CO2 (centres unmarked) [Compound 72, 2-(5-chlorothiophen-2-yl)-2-(4-(6-ethyl-4-oxo-2H-benzo[e][1,3]oxazin-3(4H)-yl)benzamido)acetic acid] |
